# Laboratory results taken from patent publication US10597388B2, “Pyridazinone herbicides” (FMC CORPORATION, priority 2014, dated 2020).
# Experiments:
# Assay in all cases: Test C greenhouse herbicide test, pre- and postemergence
# Format in all cases: in vivo
# [1] = tested on: johnsongrass (Sorghum halepense)
# In short: (§1)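 Greenhouse pots; pre-em on seeded loam:sand blend, post-em on 2–18 cm plants (1–4 leaf) in sphagnum peat/vermiculite medium. Formulation: non-phytotoxic solvent + surfactant. Read-out: visual % control (0–100) vs controls at 13–15 d.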
# [2] = tested on: morningglory (Ipomoea coccinea)
# In short: as §1
# [3] = tested on: pigweed (Amaranthus retroflexus)
# In short: as §1
# [4] = tested on: waterhemp (common waterhemp, Amaranthus rudis)
# In short: as §1
# [5] = tested on: crabgrass, large (large crabgrass, Digitaria sanguinalis)
# In short: as §1
# [6] = tested on: ragweed (common ragweed, Ambrosia elatior)
# In short: as §1
# [7] = tested on: blackgrass (Alopecurus myosuroides)
# In short: as §1
# [8] = tested on: velvetleaf (Abutilon theophrasti)
# In short: as §1
# [9] = tested on: galium (catchweed bedstraw, Galium aparine)
# In short: as §1
# [10] = tested on: oilseed rape (Brassica napus)
# In short: as §1
# [11] = tested on: barnyardgrass (Echinochloa crus-galli)
# In short: as §1
# [12] = tested on: corn (Zea mays)
# In short: as §1
# [13] = tested on: lambsquarters (Chenopodium album)
# In short: as §1
# [14] = tested on: ryegrass, Italian (Italian ryegrass, Lolium multiflorum)
# In short: as §1
# [15] = tested on: foxtail, giant (giant foxtail, Setaria faberii)
# In short: as §1
# [16] = tested on: nutsedge, yellow (yellow nutsedge, Cyperus esculentus)
# In short: as §1
# [17] = Postemergence, 125 g ai/ha, scale 0 to 100, 0 is no effect, 100 is complete control
# [18] = Postemergence, 250 g ai/ha, scale 0 to 100, 0 no effect, 100 complete control, 13 to 15 d
# [19] = Preemergence, 31 g ai/ha, scale 0 to 100, 0 is no effect, 100 is complete control
# [20] = Preemergence, 62 g ai/ha, scale 0 to 100, 0 is no effect, 100 is complete control
# [21] = Preemergence, 125 g ai/ha, scale 0 to 100, 0 is no effect, 100 is complete control
# [22] = Preemergence, 250 g ai/ha, scale 0 to 100 (0 no effect, 100 complete control)
# [23] = postemergence, 62 g ai/ha, scale 0 to 100, 0 no effect, 100 complete control
# [24] = Postemergence, 31 g ai/ha, 0 to 100 scale (0 no effect, 100 complete control)
smiles,measurement,setting,value
CCOC(=O)Oc1c(C)nn(C)c(=O)c1-c1c(C)sc2c(C)cc(C)cc12 [Compound 83],"Plant response rating, Johnsongrass",[1]; [17],5
same,"Plant response rating, Johnsongrass",[1]; [18],10
same,"Plant response rating, Johnsongrass",[1]; [19],65
same,"Plant response rating, Johnsongrass",[1]; [20],75
same,"Plant response rating, Johnsongrass",[1]; [21],60
same,Johnsongrass plant response rating,[1]; [22],70
same,Johnsongrass plant response rating,[1]; [23],5
same,"Plant response rating, Morningglory",[2]; [17],100
same,"Plant response rating, Morningglory",[2]; [18],98
same,"Plant response rating, Morningglory",[2]; [19],85
same,"Plant response rating, Morningglory",[2]; [20],90
same,"Plant response rating, Morningglory",[2]; [21],95
same,Morningglory plant response rating,[2]; [22],98
same,Morningglory plant response rating,[2]; [23],90
same,"Plant response rating, Pigweed",[3]; [17],90
same,"Plant response rating, Pigweed",[3]; [18],90
same,"Plant response rating, Pigweed",[3]; [19],100
same,"Plant response rating, Pigweed",[3]; [20],100
same,"Plant response rating, Pigweed",[3]; [21],100
same,Pigweed plant response rating,[3]; [22],100
same,Pigweed plant response rating,[3]; [23],85
same,"Plant response rating, Waterhemp",[4]; [17],60
same,"Plant response rating, Waterhemp",[4]; [18],80
same,"Plant response rating, Waterhemp",[4]; [19],60
same,"Plant response rating, Waterhemp",[4]; [20],90
same,"Plant response rating, Waterhemp",[4]; [21],100
same,Waterhemp plant response rating,[4]; [22],100
same,Waterhemp plant response rating,[4]; [23],85
same,"Plant response rating, Crabgrass, Large",[5]; [17],40
same,"Plant response rating, Crabgrass, Large",[5]; [18],55
same,"Plant response rating, Crabgrass, Large",[5]; [19],75
same,"Plant response rating, Crabgrass, Large",[5]; [20],65
same,"Plant response rating, Crabgrass, Large",[5]; [21],70
same,"Crabgrass, Large plant response rating",[5]; [22],85
same,"Crabgrass, Large plant response rating",[5]; [23],25
same,"Plant response rating, Ragweed",[6]; [17],90
same,"Plant response rating, Ragweed",[6]; [18],85
same,"Plant response rating, Ragweed",[6]; [19],85
same,"Plant response rating, Ragweed",[6]; [20],100
same,"Plant response rating, Ragweed",[6]; [21],95
same,Ragweed plant response rating,[6]; [22],95
same,Ragweed plant response rating,[6]; [23],85
same,Blackgrass plant response rating,[7]; [24],40
same,"Plant response rating, Blackgrass",[7]; [17],90
same,"Plant response rating, Blackgrass",[7]; [18],90
same,"Plant response rating, Blackgrass",[7]; [19],70
same,"Plant response rating, Blackgrass",[7]; [20],80
same,"Plant response rating, Blackgrass",[7]; [21],80
same,Blackgrass plant response rating,[7]; [22],90
same,Blackgrass plant response rating,[7]; [23],80
same,"Plant response rating, Velvetleaf",[8]; [17],90
same,"Plant response rating, Velvetleaf",[8]; [18],90
same,"Plant response rating, Velvetleaf",[8]; [19],35
same,"Plant response rating, Velvetleaf",[8]; [20],70
same,"Plant response rating, Velvetleaf",[8]; [21],85
same,Velvetleaf plant response rating,[8]; [22],90
same,Velvetleaf plant response rating,[8]; [23],90
same,"Plant response rating, Galium",[9]; [17],100
same,"Plant response rating, Galium",[9]; [18],100
same,"Plant response rating, Galium",[9]; [19],90
same,"Plant response rating, Galium",[9]; [20],90
same,"Plant response rating, Galium",[9]; [21],95
same,Galium plant response rating,[9]; [22],95
same,Galium plant response rating,[9]; [23],90
same,"Plant response rating, Oilseed Rape",[10]; [17],45
same,"Plant response rating, Oilseed Rape",[10]; [18],70
same,"Plant response rating, Oilseed Rape",[10]; [19],0
same,"Plant response rating, Oilseed Rape",[10]; [20],0
same,"Plant response rating, Oilseed Rape",[10]; [21],50
same,Oilseed Rape plant response rating,[10]; [22],50
same,Oilseed Rape plant response rating,[10]; [23],0
same,Barnyardgrass plant response rating,[11]; [24],25
same,"Plant response rating, Barnyardgrass",[11]; [17],30
same,"Plant response rating, Barnyardgrass",[11]; [18],45
same,"Plant response rating, Barnyardgrass",[11]; [19],50
same,"Plant response rating, Barnyardgrass",[11]; [20],70
same,"Plant response rating, Barnyardgrass",[11]; [21],85
same,Barnyardgrass plant response rating,[11]; [22],90
same,Barnyardgrass plant response rating,[11]; [23],25
same,Corn plant response rating,[12]; [24],5
same,"Plant response rating, Corn",[12]; [17],10
same,"Plant response rating, Corn",[12]; [18],10
same,"Plant response rating, Corn",[12]; [19],0
same,"Plant response rating, Corn",[12]; [20],0
same,"Plant response rating, Corn",[12]; [21],0
same,Corn plant response rating,[12]; [22],10
same,Corn plant response rating,[12]; [23],5
same,"Plant response rating, Lambsquarters",[13]; [17],85
same,"Plant response rating, Lambsquarters",[13]; [18],98
same,"Plant response rating, Lambsquarters",[13]; [19],80
same,"Plant response rating, Lambsquarters",[13]; [20],85
same,"Plant response rating, Lambsquarters",[13]; [21],95
same,Lambsquarters plant response rating,[13]; [22],100
same,Lambsquarters plant response rating,[13]; [23],85
same,"Plant response rating, Ryegrass, Italian",[14]; [17],90
same,"Plant response rating, Ryegrass, Italian",[14]; [18],95
same,"Plant response rating, Ryegrass, Italian",[14]; [19],90
same,"Plant response rating, Ryegrass, Italian",[14]; [20],90
same,"Plant response rating, Ryegrass, Italian",[14]; [21],90
same,"Ryegrass, Italian plant response rating",[14]; [22],90
same,"Ryegrass, Italian plant response rating",[14]; [23],90
same,"Plant response rating, Foxtail, Giant",[15]; [17],85
same,"Plant response rating, Foxtail, Giant",[15]; [18],90
same,"Plant response rating, Foxtail, Giant",[15]; [19],85
same,"Plant response rating, Foxtail, Giant",[15]; [20],100
same,"Plant response rating, Foxtail, Giant",[15]; [21],100
same,"Foxtail, Giant plant response rating",[15]; [22],100
same,"Foxtail, Giant plant response rating",[15]; [23],85
same,"Plant response rating, Nutsedge, Yellow",[16]; [17],85
same,"Plant response rating, Nutsedge, Yellow",[16]; [18],90
same,"Plant response rating, Nutsedge, Yellow",[16]; [19],85
same,"Plant response rating, Nutsedge, Yellow",[16]; [20],90
same,"Plant response rating, Nutsedge, Yellow",[16]; [21],85
same,"Nutsedge, Yellow plant response rating",[16]; [22],95
same,"Nutsedge, Yellow plant response rating",[16]; [23],80
